# According to PMC12406203 (Journal of Medicinal Chemistry, 2025):
# Legend:
# [1] = system: mice (motor coordination); assay: Rotarod test; conditions: 10 mg/kg i.p., mice
# Description: For behavioral tests, the mice were selected randomly; each group consisted of 7–10 mice.
# In the rotarod, locomotor activity, and MWM tests, only one dose effective in the scopolamine model of amnesia was evaluated.
# Three days before the rotarod test, the mice were trained on the rotarod apparatus (Rotarod apparatus, May Commat RR0711, Turkey; rod diameter: 2 cm) that was rotated at a fixed speed of 18 rpm. In each training session, the mice were placed on the rotating rod for 3 min with an unlimited number of trials. The proper experiment was performed 24 h after the last training trial. […] Motor impairments in mice were defined as the inability to remain on the rotarod apparatus for 1 min. The results are expressed as the mean time spent on the rotarod.
# hBChE in SH-SY5Y cells = biological target: T1, hBChE in SH-SY5Y cells (Homo sapiens, UniProt P06276); assay: hBChE inhibition assay in SH-SY5Y cells; type: cell-based; conditions: 10 and 1 μM; compared with control ethopropazine
# T1 construct: endogenous in cells; host or cells: SH-SY5Y human neuroblastoma cells
# Description: hBChE activity in live whole SH-SY5Y cells was measured by the modified procedure of Onder and colleagues. Briefly, after centrifugation, the complete medium was removed and cells were suspended in PBS warmed to 37 °C. 50 μL of this suspension was added to a 96-well plate so that each well contained approximately 360,000 cells. 81 μL of 0.5 mM 5,5′-dithiobis (2-nitrobenzoic acid) in 0.1 M potassium phosphate buffer (pH 7.0) was added, followed by 2 μL of DMSO solutions of compounds 94, 95, or ethopropazine (positive control). The reaction was initiated by the addition of 67 μL of 1 mM acetylthiocholine. The total reagent volume in each well was 200 μL. The microplate was covered with a lid to minimize evaporation while absorbance at 412 nm was recorded over a period of 120 min with a 30 s interval on a Tecan Spark microplate reader (Tecan Austria GmbH, Salzburg, Austria) set to 24 °C. Autohydrolysis rates of butyrylthiocholine were measured in wells that contained all reagents + PBS with no cells. The residual activity of hBChE was then calculated by the protocol described above.
# human p38α MAPK = human p38α MAPK (Homo sapiens, UniProt Q16539); assay: biochemical
# Description: The inhibitory activities against human p38α MAPK were evaluated using the commercially available ADP-Glo Kinase Assay (Promega, Inc., USA).
# For the reference sample, 1% [v/v] DMSO replaced the inhibitor solution. […] The enzyme reaction was started with the addition of the enzyme solution. The DMSO concentration in the test solution was maintained at 1% [v/v]. The plate was incubated for 60 min. Then 5 μL of ADP-Glo reagent was added, followed by a 40 min incubation at room temperature. […] All incubations were performed at room temperature. The RA and IC50 values were calculated as described above (ChEs inhibitory potency).
# [2] = system: TYK2(JH1domain-catalytic)
# [3] = for Pe ± SEM: BBB-PAMPA, pH 7.4, n = 2 novel compounds, n = 3 reference drugs; for CNS (+/–): predicted BBB permeation from Pe
# [4] = system: JAK2(JH1domain-catalytic)
# [5] = system: ABL1(T315I)-phosphorylated
# [6] = p38α MAPK IC50, IC50 expressed as concentration in ng/mL
# [7] = p38α MAPK IC50 ± SEM, two independent experiments, each in triplicate
# Chain of human p38α MAPK (Q16539 whole entry): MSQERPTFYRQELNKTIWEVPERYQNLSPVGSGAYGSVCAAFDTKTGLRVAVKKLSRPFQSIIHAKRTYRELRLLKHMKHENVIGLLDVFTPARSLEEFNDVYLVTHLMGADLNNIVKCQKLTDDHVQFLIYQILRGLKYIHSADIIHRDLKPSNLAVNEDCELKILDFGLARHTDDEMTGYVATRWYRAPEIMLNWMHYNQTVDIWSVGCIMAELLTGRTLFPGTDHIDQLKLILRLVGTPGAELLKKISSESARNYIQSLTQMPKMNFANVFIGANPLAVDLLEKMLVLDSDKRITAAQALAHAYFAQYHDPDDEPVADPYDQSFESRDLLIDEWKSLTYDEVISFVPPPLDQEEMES
# T1 sequence (P06276 29-602): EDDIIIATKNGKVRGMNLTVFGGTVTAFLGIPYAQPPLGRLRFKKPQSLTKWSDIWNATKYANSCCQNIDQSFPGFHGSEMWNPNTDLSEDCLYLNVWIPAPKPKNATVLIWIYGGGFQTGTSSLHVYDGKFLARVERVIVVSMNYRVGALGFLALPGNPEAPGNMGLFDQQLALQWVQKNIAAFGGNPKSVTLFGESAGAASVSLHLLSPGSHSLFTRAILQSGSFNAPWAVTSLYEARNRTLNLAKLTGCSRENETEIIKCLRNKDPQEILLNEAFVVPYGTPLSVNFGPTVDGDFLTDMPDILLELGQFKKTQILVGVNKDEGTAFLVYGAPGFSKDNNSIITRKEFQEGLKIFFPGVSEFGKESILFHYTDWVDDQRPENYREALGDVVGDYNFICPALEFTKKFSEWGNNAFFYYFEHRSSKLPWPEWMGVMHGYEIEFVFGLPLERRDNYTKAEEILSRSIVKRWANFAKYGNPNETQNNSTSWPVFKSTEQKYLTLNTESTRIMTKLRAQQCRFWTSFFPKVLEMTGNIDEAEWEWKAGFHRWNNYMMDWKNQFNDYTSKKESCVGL
compound,measurement,setting,value
"CC(C)Cn1ncc2cc(Cc3ccc(F)cc3F)c(C(=O)NCCN(C)C)cc21 [Compound 94, 5-(2,4-Difluorobenzyl)-N-(2-(dimethylamino)ethyl)-1-isobutyl-1H-indazole-6-carboxamide]",RA @ 1000nM,IKKα,82%
same,RA @ 10000nM,IKKα,87%
same,RA at 100 µM,hAChE,69 ± 4%
same,RA @ 1000nM,EGFR(L858R),100%
same,RA @ 10000nM,EGFR(L858R),66%
same,RA @ 1000nM,RIOK2,85%
same,RA @ 10000nM,RIOK2,92%
same,RA @ 1000nM,SRC,100%
same,RA @ 10000nM,SRC,94%
same,motor adverse effects (rotarod test),[1],no motor adverse effects
same,RA @ 1000nM,ERBB4,85%
same,RA @ 10000nM,ERBB4,83%
same,RA @ 1000nM,MAP3K4,49%
same,RA @ 10000nM,MAP3K4,100%
same,hBChE inhibition in SH-SY5Y human neuroblastoma cell line,hBChE in SH-SY5Y cells,outperformed the control ethopropazine
same,RA @ 1000nM,PDPK1,88%
same,RA @ 10000nM,PDPK1,74%
same,RA @ 1000nM,PAK4,97%
same,RA @ 10000nM,PAK4,96%
same,IC50,human p38α MAPK; [6],376 nM
same,IC50,human p38α MAPK; [7],377 ± 123 nM
same,RA @ 1000nM,AKT2,89%
same,RA @ 10000nM,AKT2,76%
same,RA @ 1000nM,FLT3,100%
same,RA @ 10000nM,FLT3,90%
same,RA @ 1000nM,JNK1,77%
same,RA @ 10000nM,JNK1,41%
same,RA @ 1000nM,PRKCE,80%
same,RA @ 10000nM,PRKCE,80%
same,RA @ 1000nM,JNK2,52%
same,RA @ 10000nM,JNK2,8.3%
same,RA @ 1000nM,CDK7,79%
same,RA @ 10000nM,CDK7,86%
same,RA @ 1000nM,ABL1-nonphosphorylated,85%
same,RA @ 10000nM,ABL1-nonphosphorylated,97%
same,RA @ 1000nM,[2],78%
same,RA @ 10000nM,[2],79%
same,RA @ 1000nM,MKNK1,100%
same,RA @ 10000nM,MKNK1,100%
same,Pe ± SEM,[3],10.4 ± 0.01 ×10–6 cm/s
same,CNS (+/–),[3],CNS+ (CNS+ indicates high predicted BBB permeation [Pe (×10–6 cm/s) > 4.0])
same,RA @ 1000nM,INSR,81%
same,RA @ 10000nM,INSR,90%
same,RA @ 1000nM,LKB1,100%
same,RA @ 10000nM,LKB1,96%
same,RA @ 1000nM,[4],98%
same,RA @ 10000nM,[4],100%
same,RA @ 1000nM,PAK2,100%
same,RA @ 10000nM,PAK2,97%
same,RA @ 1000nM,CSF1R,100%
same,RA @ 10000nM,CSF1R,86%
same,RA @ 1000nM,ULK2,71%
same,RA @ 10000nM,ULK2,88%
same,RA @ 1000nM,ERBB2,74%
same,RA @ 10000nM,ERBB2,81%
same,RA @ 1000nM,PCTK1,96%
same,RA @ 10000nM,PCTK1,92%
same,RA @ 1000nM,[5],93%
same,RA @ 10000nM,[5],90%
same,RA @ 1000nM,AURKA,96%
same,RA @ 10000nM,AURKA,93%
same,RA @ 1000nM,PIM2,100%
same,RA @ 10000nM,PIM2,100%
same,RA @ 1000nM,MET,96%
same,RA @ 10000nM,MET,100%
same,RA @ 1000nM,BRAF(V600E),100%
same,RA @ 10000nM,BRAF(V600E),100%
"CN(C)CCNC(=O)c1cc2c(cnn2CC2CCCCC2)cc1Cc1ccc(F)cc1F [Compound 95, 1-(Cyclohexylmethyl)-5-(2,4-difluorobenzyl)-N-(2-(dimethylamino)ethyl)-1H-indazole-6-carboxamide]",RA @ 1000nM,IKKα,92%
same,RA @ 10000nM,IKKα,75%
same,RA at 100 µM,hAChE,53 ± 1%
same,RA @ 1000nM,EGFR(L858R),100%
same,RA @ 10000nM,EGFR(L858R),100%
same,RA @ 1000nM,RIOK2,88%
same,RA @ 10000nM,RIOK2,81%
same,RA @ 1000nM,SRC,100%
same,RA @ 10000nM,SRC,93%
same,motor adverse effects (rotarod test),[1],no motor adverse effects
same,RA @ 1000nM,ERBB4,93%
same,RA @ 10000nM,ERBB4,81%
same,RA @ 1000nM,MAP3K4,100%
same,RA @ 10000nM,MAP3K4,60%
same,hBChE inhibition in SH-SY5Y human neuroblastoma cell line,hBChE in SH-SY5Y cells,outperformed the control ethopropazine
same,RA @ 1000nM,PDPK1,100%
same,RA @ 10000nM,PDPK1,87%
same,RA @ 1000nM,PAK4,100%
same,RA @ 10000nM,PAK4,88%
same,IC50,human p38α MAPK; [6],191 nM
same,IC50,human p38α MAPK; [7],191 ± 21 nM
same,RA @ 1000nM,AKT2,100%
same,RA @ 10000nM,AKT2,88%
same,RA @ 1000nM,FLT3,100%
same,RA @ 10000nM,FLT3,100%
same,RA @ 1000nM,JNK1,100%
same,RA @ 10000nM,JNK1,27%
same,RA @ 1000nM,PRKCE,79%
same,RA @ 10000nM,PRKCE,76%
same,RA @ 1000nM,JNK2,44%
same,RA @ 10000nM,JNK2,3.8%
same,RA @ 1000nM,CDK7,88%
same,RA @ 10000nM,CDK7,77%
same,RA @ 1000nM,ABL1-nonphosphorylated,90%
same,RA @ 10000nM,ABL1-nonphosphorylated,90%
same,RA @ 1000nM,[2],89%
same,RA @ 10000nM,[2],75%
same,RA @ 1000nM,MKNK1,100%
same,RA @ 10000nM,MKNK1,100%
same,Pe ± SEM,[3],13.2 ± 1.1 ×10–6 cm/s
same,CNS (+/–),[3],CNS+ (CNS+ indicates high predicted BBB permeation [Pe (×10–6 cm/s) > 4.0])
same,RA @ 1000nM,INSR,84%
same,RA @ 10000nM,INSR,81%
same,RA @ 1000nM,LKB1,100%
same,RA @ 10000nM,LKB1,86%
same,RA @ 1000nM,[4],100%
same,RA @ 10000nM,[4],100%
same,RA @ 1000nM,PAK2,100%
same,RA @ 10000nM,PAK2,95%
same,RA @ 1000nM,CSF1R,100%
same,RA @ 10000nM,CSF1R,79%
same,RA @ 1000nM,ULK2,77%
same,RA @ 10000nM,ULK2,75%
same,RA @ 1000nM,ERBB2,84%
same,RA @ 10000nM,ERBB2,78%
same,RA @ 1000nM,PCTK1,87%
same,RA @ 10000nM,PCTK1,79%
same,RA @ 1000nM,[5],72%
same,RA @ 10000nM,[5],91%
same,RA @ 1000nM,AURKA,95%
same,RA @ 10000nM,AURKA,93%
same,RA @ 1000nM,PIM2,100%
same,RA @ 10000nM,PIM2,100%
same,RA @ 1000nM,MET,100%
same,RA @ 10000nM,MET,100%
same,RA @ 1000nM,BRAF(V600E),98%
same,RA @ 10000nM,BRAF(V600E),100%
